Results as given in ChEMBL document CHEMBL4007388, “Synthesis and antiproliferative activity of monocationic arylthiophene derivatives” (Eur J Med Chem, 2017).

How the values were obtained:
SNB-75 = experiment: Growth inhibition of human SNB75 cells incubated for 48 hrs by sulforhodamine B assay; type: functional; settings: SNB-75, 48 h
MDA-MB-435 = experiment: Growth inhibition of human MDA-MB-435 cells incubated for 48 hrs by sulforhodamine B assay; type: functional; settings: MDA-MB-435, 48 h
SK-MEL-28 = experiment: Growth inhibition of human SK-MEL-28 cells incubated for 48 hrs by sulforhodamine B assay; type: functional; settings: SK-MEL-28, 48 h
K562 = experiment: Growth inhibition of human K562 cells incubated for 48 hrs by sulforhodamine B assay; type: functional; settings: K562, 48 h
NCI-H460 = experiment: Growth inhibition of human NCI-H460 cells incubated for 48 hrs by sulforhodamine B assay; type: functional; settings: NCI-H460, 48 h
[1] = Growth inhibition of human NCI60 cells at 10 uM after 48 hrs by SRB assay relative to control; values are per cent of control; settings: NCI60, 48 h
OVCAR-8 = experiment: Growth inhibition of human OVCAR8 cells incubated for 48 hrs by sulforhodamine B assay; type: functional; settings: OVCAR-8, 48 h
Escherichia coli = experiment: Induction of Escherichia coli genomic DNA cleavage after 1 hr by agarose gel electrophoresis method
MDA-MB-468 = experiment: Growth inhibition of human MDA-MB-468 cells incubated for 48 hrs by sulforhodamine B assay; type: functional; settings: MDA-MB-468, 48 h
OVCAR-5 = experiment: Growth inhibition of human OVCAR5 cells incubated for 48 hrs by sulforhodamine B assay; type: functional; settings: OVCAR-5, 48 h
U-251 = experiment: Growth inhibition of human U251 cells incubated for 48 hrs by sulforhodamine B assay; type: functional; settings: U-251, 48 h
NCI/ADR-RES = experiment: Growth inhibition of human NCI/ADR-RES cells incubated for 48 hrs by sulforhodamine B assay; type: functional
HT-29 = experiment: Growth inhibition of human HT-29 cells incubated for 48 hrs by sulforhodamine B assay; type: functional; settings: HT-29, 48 h
RXF 393 = experiment: Growth inhibition of human RXF393 cells incubated for 48 hrs by sulforhodamine B assay; type: functional; settings: RXF 393, 48 h
COLO 205 = experiment: Growth inhibition of human COLO205 cells incubated for 48 hrs by sulforhodamine B assay; type: functional; settings: COLO 205, 48 h
M14 = experiment: Growth inhibition of human M14 cells incubated for 48 hrs by sulforhodamine B assay; type: functional; settings: M14, 48 h
SN12C = experiment: Growth inhibition of human SN12C cells incubated for 48 hrs by sulforhodamine B assay; type: functional
WI-38 = experiment: Cytotoxicity against human WI38 cells assessed as reduction in cell viability after 24 hrs by MTT assay; type: cell-based; settings: WI-38, 24 h
ACHN = experiment: Growth inhibition of human ACHN cells incubated for 48 hrs by sulforhodamine B assay; type: functional
HCT-15 = experiment: Growth inhibition of human HCT15 cells incubated for 48 hrs by sulforhodamine B assay; type: functional; settings: HCT-15, 48 h
HOP-92 = experiment: Growth inhibition of human HOP92 cells incubated for 48 hrs by sulforhodamine B assay; type: functional; settings: HOP-92, 48 h
UO-31 = experiment: Growth inhibition of human UO31 cells incubated for 48 hrs by sulforhodamine B assay; type: functional; settings: UO-31, 48 h
UACC-62 = experiment: Growth inhibition of human UACC62 cells incubated for 48 hrs by sulforhodamine B assay; type: functional; settings: UACC-62, 48 h
MCF7 = experiment: Growth inhibition of human MCF7 cells incubated for 48 hrs by sulforhodamine B assay; type: functional; settings: MCF7, 48 h
Hs-578T = experiment: Growth inhibition of human Hs 578T cells incubated for 48 hrs by sulforhodamine B assay; type: functional
OVCAR-3 = experiment: Growth inhibition of human OVCAR3 cells incubated for 48 hrs by sulforhodamine B assay; type: functional; settings: OVCAR-3, 48 h
SK-MEL-5 = experiment: Growth inhibition of human SK-MEL-5 cells incubated for 48 hrs by sulforhodamine B assay; type: functional; settings: SK-MEL-5, 48 h
SF-268 = experiment: Growth inhibition of human SF268 cells incubated for 48 hrs by sulforhodamine B assay; type: functional; settings: SF-268, 48 h
HCT-116 = experiment: Growth inhibition of human HCT116 cells incubated for 48 hrs by sulforhodamine B assay; type: functional; settings: HCT-116, 48 h
OVCAR-4 = experiment: Growth inhibition of human OVCAR4 cells incubated for 48 hrs by sulforhodamine B assay; type: functional; settings: OVCAR-4, 48 h
SK-MEL-2 = experiment: Growth inhibition of human SK-MEL-2 cells incubated for 48 hrs by sulforhodamine B assay; type: functional; settings: SK-MEL-2, 48 h
CAKI-1 = experiment: Growth inhibition of human Caki1 cells incubated for 48 hrs by sulforhodamine B assay; type: functional; settings: CAKI-1, 48 h
LOX IMVI = experiment: Growth inhibition of human LOXIMVI cells incubated for 48 hrs by sulforhodamine B assay; type: functional
RPMI-8226 = experiment: Growth inhibition of human RPMI8226 cells incubated for 48 hrs by sulforhodamine B assay; type: functional; settings: RPMI-8226, 48 h
SF-539 = experiment: Growth inhibition of human SF539 cells incubated for 48 hrs by sulforhodamine B assay; type: functional; settings: SF-539, 48 h
A549 = experiment: Growth inhibition of human A549/ATCC cells incubated for 48 hrs by sulforhodamine B assay; type: functional; settings: A549, 48 h
NCI-H23 = experiment: Growth inhibition of human NCI-H23 cells incubated for 48 hrs by sulforhodamine B assay; type: functional; settings: NCI-H23, 48 h
786-0 = experiment: Growth inhibition of human 786-O cells incubated for 48 hrs by sulforhodamine B assay; type: functional; settings: 786-0, 48 h
NCI-H522 = experiment: Growth inhibition of human NCI-H522 cells incubated for 48 hrs by sulforhodamine B assay; type: functional; settings: NCI-H522, 48 h
SNB-19 = experiment: Growth inhibition of human SNB19 cells incubated for 48 hrs by sulforhodamine B assay; type: functional; settings: SNB-19, 48 h
UACC-257 = experiment: Growth inhibition of human UACC257 cells incubated for 48 hrs by sulforhodamine B assay; type: functional; settings: UACC-257, 48 h
SK-OV-3 = experiment: Growth inhibition of human SKOV3 cells incubated for 48 hrs by sulforhodamine B assay; type: functional; settings: SK-OV-3, 48 h
PC-3 = experiment: Growth inhibition of human PC3 cells incubated for 48 hrs by sulforhodamine B assay; type: functional; settings: PC-3, 48 h
Malme-3M = experiment: Growth inhibition of human MALME-3M cells incubated for 48 hrs by sulforhodamine B assay; type: functional
NCI-H322M = experiment: Growth inhibition of human NCI-H322M cells incubated for 48 hrs by sulforhodamine B assay; type: functional
SW-620 = experiment: Growth inhibition of human SW620 cells incubated for 48 hrs by sulforhodamine B assay; type: functional; settings: SW-620, 48 h
[2] = Antioxidant activity assessed as superoxide dismutase-like activity by measuring inhibition of superoxide radical anion production at 2 uM by NBT reduction assay relative to control; type: functional

Structure (SMILES): N=C(N)c1ccc(-c2ccc(-c3ccc(F)cc3)s2)cc1
- GI50 (SNB-75): 1650 nM
- GI50 (MDA-MB-435): 1660 nM
- GI50 (SK-MEL-28): 1570 nM
- GI50 (K562): 268 nM
- GI50 (NCI-H460): 392 nM
- growth percent at 10 µM [1]: -78.7%
- GI50 (OVCAR-8): 2110 nM
- Activity (Escherichia coli): Dose-dependent effect
- GI50 (MDA-MB-468): 1260 nM
- GI50 (OVCAR-5): 1550 nM
- GI50 (U-251): 457 nM
- GI50 (NCI/ADR-RES): 1770 nM
- GI50 (HT-29): 323 nM
- GI50 (RXF 393): 1480 nM
- GI50 (COLO 205): 204 nM
- GI50 (M14): 1600 nM
- GI50 (SN12C): 1590 nM
- IC50 (WI-38): 197000 nM
- GI50 (ACHN): 1560 nM
- GI50 (HCT-15): 252 nM
- GI50 (HOP-92): 1540 nM
- GI50 (UO-31): 1580 nM
- GI50 (UACC-62): 1650 nM
- GI50 (MCF7): 323 nM
- GI50 (Hs-578T): 2160 nM
- GI50 (OVCAR-3): 1710 nM
- GI50 (SK-MEL-5): 1600 nM
- GI50 (SF-268): 1540 nM
- GI50 (HCT-116): 1580 nM
- GI50 (OVCAR-4): 1630 nM
- GI50 (SK-MEL-2): 2050 nM
- GI50 (CAKI-1): 1670 nM
- GI50 (LOX IMVI): 164 nM
- GI50 (RPMI-8226): 799 nM
- GI50 (SF-539): 1620 nM
- GI50 (A549): 2120 nM
- GI50 (NCI-H23): 1580 nM
- GI50 (786-0): 1470 nM
- GI50 (NCI-H522): 1870 nM
- GI50 (SNB-19): 1930 nM
- GI50 (UACC-257): 2580 nM
- GI50 (SK-OV-3): 1610 nM
- GI50 (PC-3): 1590 nM
- GI50 (Malme-3M): 1550 nM
- GI50 (NCI-H322M): 1330 nM
- GI50 (SW-620): 386 nM
- inhibition [2]: 59.6%

Structure (SMILES): COc1ccc(-c2ccc(-c3ccc(C(=N)N)c(F)c3)s2)cc1
- GI50 (SNB-75): 10700 nM
- GI50 (MDA-MB-435): 1830 nM
- GI50 (SK-MEL-28): 2310 nM
- GI50 (K562): 2660 nM
- GI50 (NCI-H460): 2430 nM
- growth percent at 10 µM [1]: -80.5%
- GI50 (OVCAR-8): 8220 nM
- Activity (Escherichia coli): Dose-dependent effect
- GI50 (MDA-MB-468): 1390 nM
- GI50 (OVCAR-5): 4980 nM
- GI50 (U-251): 2920 nM
- GI50 (NCI/ADR-RES): 10100 nM
- GI50 (HT-29): 2790 nM
- GI50 (RXF 393): 4680 nM
- GI50 (COLO 205): 1780 nM
- GI50 (M14): 1900 nM
- GI50 (SN12C): 5970 nM
- IC50 (WI-38): 104000 nM
- GI50 (ACHN): 4240 nM
- GI50 (HCT-15): 2580 nM
- GI50 (HOP-92): 1380 nM
- GI50 (UO-31): 3170 nM
- GI50 (UACC-62): 1820 nM
- GI50 (MCF7): 2080 nM
- GI50 (Hs-578T): 4820 nM
- GI50 (OVCAR-3): 9770 nM
- GI50 (SK-MEL-5): 2670 nM
- GI50 (SF-268): 4850 nM
- GI50 (HCT-116): 3040 nM
- GI50 (OVCAR-4): 6420 nM
- GI50 (SK-MEL-2): 2410 nM
- GI50 (CAKI-1): 3940 nM
- GI50 (LOX IMVI): 2230 nM
- GI50 (RPMI-8226): 2510 nM
- GI50 (SF-539): 8960 nM
- GI50 (A549): 4760 nM
- GI50 (NCI-H23): 11000 nM
- GI50 (786-0): 3930 nM
- GI50 (NCI-H522): 3730 nM
- GI50 (SNB-19): 9440 nM
- GI50 (UACC-257): 1840 nM
- GI50 (SK-OV-3): 9210 nM
- GI50 (PC-3): 4050 nM
- GI50 (Malme-3M): 2150 nM
- GI50 (NCI-H322M): 3580 nM
- GI50 (SW-620): 1920 nM
- inhibition [2]: 55%

Structure (SMILES): N=C(N)c1ccc(-c2ccc(-c3ccc(Cl)cc3)s2)cc1
- GI50 (SNB-75): 157 nM
- GI50 (MDA-MB-435): 172 nM
- GI50 (SK-MEL-28): 176 nM
- GI50 (K562): 202 nM
- GI50 (NCI-H460): 193 nM
- growth percent at 10 µM [1]: -70.5%
- GI50 (OVCAR-8): 223 nM
- Activity (Escherichia coli): Dose-dependent effect
- GI50 (MDA-MB-468): 173 nM
- GI50 (OVCAR-5): 169 nM
- GI50 (U-251): 172 nM
- GI50 (NCI/ADR-RES): 185 nM
- GI50 (HT-29): 177 nM
- GI50 (RXF 393): 157 nM
- GI50 (COLO 205): 203 nM
- GI50 (M14): 172 nM
- GI50 (SN12C): 180 nM
- IC50 (WI-38): 131000 nM
- GI50 (ACHN): 180 nM
- GI50 (HCT-15): 171 nM
- GI50 (HOP-92): 156 nM
- GI50 (UO-31): 175 nM
- GI50 (UACC-62): 178 nM
- GI50 (MCF7): 171 nM
- GI50 (Hs-578T): 200 nM
- GI50 (OVCAR-3): 194 nM
- GI50 (SK-MEL-5): 204 nM
- GI50 (SF-268): 184 nM
- GI50 (HCT-116): 170 nM
- GI50 (OVCAR-4): 172 nM
- GI50 (SK-MEL-2): 241 nM
- GI50 (CAKI-1): 167 nM
- GI50 (LOX IMVI): 179 nM
- GI50 (RPMI-8226): 194 nM
- GI50 (SF-539): 171 nM
- GI50 (A549): 202 nM
- GI50 (NCI-H23): 190 nM
- GI50 (786-0): 178 nM
- GI50 (NCI-H522): 186 nM
- GI50 (SNB-19): 194 nM
- GI50 (UACC-257): 310 nM
- GI50 (SK-OV-3): 246 nM
- GI50 (PC-3): 164 nM
- GI50 (Malme-3M): 219 nM
- GI50 (NCI-H322M): 182 nM
- GI50 (SW-620): 177 nM
- inhibition [2]: 60.6%
